The values below are quoted from earlier work in US8067364B2, “Deer antler extract for promoting angiogenesis” (Velvet Antler Research New Zealand Limited (VARNZ), priority 2003, dated 2011).

In one data set the test system is wounds. To be noted: delivered by gene therapy, local sustained delivery; literature.
Data set [1] concerns endothelial cells, wounds. Particulars: literature.

No end group written: not given here.

Regarding VEGF, the “angiogenesis and wound healing” value with wounds was “cause angiogenesis and enhanced wound healing”.

In the case of “Thymosin α1: peptide of the Thymosin family, potential wound healing agent (Ac-SDAAVDTSSEITTKDLKEKKEVVEEAEN; ends and bridges not checked; UniProt P06454 2-29, looked up)”, the “endothelial cell migration, angiogenesis, and wound healing” value in data set [1] was “stimulates endothelial cell migration, angiogenesis, and wound healing”.
